Measurements published in patent US8071569B2, “Oxidized heparin fractions and their use in inhibiting angiogenesis” (priority 2002, dated 2011).

Experiments:
[1] = test system: chick chorioallantoic membrane (CAM); experiment: FGF2-induced neovascularization on the chick chorioallantoic membrane (CAM); format: in vivo; details: FGF2 alone (filter disk, 1 μg/mL)
Protocol: In vivo neovascularization was examined by the method previously described by Auerbach et al. (Auerbach et al., J. Dev. Biol., 41:391-394 (1974), which is hereby incorporated by reference in its entirety). Ten-day old embryos were purchased from Spafas, Inc. (Preston, Conn.) and were incubated at 37° C. with 55% relative humidity. In the dark with the help of a candling lamp, a small hole was punctured in the shell concealing the air sac with a hypodermic needle. A second hole was punctured in the shell on the broadside of the egg directly over an avascular portion of the embryonic membrane, as observed during candling. A false air sac was created beneath the second hole by the application of negative pressure to the first hole, which caused the chorioallantoic membrane (CAM) to separate from the shell. […]
CAM tissue directly beneath FGF2-saturated filter disk was resected from embryos treated 48 hours prior with test compound or control. […] Digital images of CAM sections adjacent to filters were collected using a 3-CCD color video camera system (Toshiba America, New York, N.Y.) and analyzed using Image-Pro Plus software (Media Cybernetics, Silver Spring, Md.). Table 4 contains the number of vessel branch points contained in a circular region equal to the area of a filter disk counted for each section.

[2] = test system: Human umbilical vein endothelial cells (HUVEC); experiment: Inhibition of FGF2-stimulated endothelial cell tube formation on Matrigel; format: cell-based; details: FGF2 alone 100 ng/ml, overnight
Protocol: Differentiation by endothelial cells was examined using a method developed by Grant et al. (Grant et al., In Vitro Cell Dev. Biol., 27A:327-336 (1991), which is hereby incorporated by reference in its entirety). Matrigel® matrix, phenol-red free (commercially available from Becton Dickinson, Bedford, Mass.) was thawed overnight at 4° C. Using cold pipette tips, 3.0 mg/well of Matrigel® matrix was placed in a cold twenty-four-multiwell plate (Falcon). Matrigel® matrix was allowed to polymerize during incubation at 37° C. for 30 minutes.
Human umbilical vein endothelial cells (HUVEC) were maintained at 37° C. with 5% CO2 and 95% humidity in endothelial cell growth medium with 2% fetal bovine serum (EGM). […]
Subsequently, the medium was aspirated and cells were fixed and stained using a modified HEMA-3 stain kit. Digital images of micro-titer well sections were collected using a DKC5000 3-CCD color video camera system (Toshiba America, New York, N.Y.) and analyzed using Image-Pro Plus software (Media Cybernetics, Silver Spring, Md.). The area and major axis length of stained cells having a tubular morphology was measured on the Matrigel® matrix surface (Becton Dickinson, Bedford, Pa.) counted from 5 images/well.

Colon tumor = experiment: CAM tumor implant model, colon tumor; format: in vivo, chick; details: 0.01 mg single dose over 7 days, initial implant 45 ± 5 mg, n = 8
Protocol: Ten million tumor cells were placed on the surface of each CAM and were cultured for one week. The resulting tumors were excised and cut into 50 mg fragments. These fragments were placed on additional CAMs and treated topically or systemically by intravenous injection the following day with the test agents. […] Each treatment group incorporated at least ten tumors per experiment. Tumors were then excised from the egg and tumor weights were determined for each tumor.

Substance	Average # of Branch Points [1]	Cell Tube Formation (area, mm^2) [2]	Cell Tube Formation (length, mm) [2]	Mean tumor weight (mg) ± SEM (Colon tumor)
FGF2: recombinant human fibroblast growth factor basic, angiogenic stimulus	264 + 18	2.50 ± 0.28 mm^2	79.83 ± 8.66 mm	–
r-TFPI: r-tissue factor pathway inhibitor	–	–	–	38 ± 8 mg
